# Measurements taken from PubChem BioAssay (NCI).
#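 Exposure lasted 48 hours, with cells grown in 96-well plates and compounds tested at five concentrations. GI50 = concentration required for 50% inhibition of growth. TGI: concentration producing complete growth inhibition.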
# What was measured:
# Assay in all cases: inhibition of tumour cell growth, NCI panel, 48 h
# LOX IMVI melanoma = test system: LOX IMVI melanoma
# COLO 205 colon = test system: COLO 205 colon
# ACHN renal = test system: ACHN renal
# SF-268 CNS = test system: SF-268 CNS
# CCRF-CEM leukemia = test system: CCRF-CEM leukemia
# SK-MEL-2 melanoma = test system: SK-MEL-2 melanoma
# TK-10 renal = test system: TK-10 renal
# UACC-62 melanoma = test system: UACC-62 melanoma
# OVCAR-3 ovarian = test system: OVCAR-3 ovarian
# SK-MEL-5 melanoma = test system: SK-MEL-5 melanoma
# HCT-15 colon = test system: HCT-15 colon
# SF-539 CNS = test system: SF-539 CNS
# HOP-92 NSCLC = test system: HOP-92 NSCLC
# UACC-257 melanoma = test system: UACC-257 melanoma
# OVCAR-4 ovarian = test system: OVCAR-4 ovarian
# HCT-116 colon = test system: HCT-116 colon
# HS 578T breast = test system: HS 578T breast
# A549 NSCLC = test system: A549 NSCLC
# SK-OV-3 ovarian = test system: SK-OV-3 ovarian
# NCI/ADR-RES ovarian = test system: NCI/ADR-RES ovarian
# T-47D breast = test system: T-47D breast
# HCC-2998 colon = test system: HCC-2998 colon
# SK-MEL-28 melanoma = test system: SK-MEL-28 melanoma
# MDA-MB-435 = test system: MDA-MB-435
# PC-3 prostate = test system: PC-3 prostate
# U251 CNS = test system: U251 CNS
# IGROV1 ovarian = test system: IGROV1 ovarian
# M14 melanoma = test system: M14 melanoma
# OVCAR-8 ovarian = test system: OVCAR-8 ovarian
# UO-31 renal = test system: UO-31 renal
# K-562 leukemia = test system: K-562 leukemia
# SN12C renal = test system: SN12C renal
# MCF7 breast = test system: MCF7 breast
# MALME-3M melanoma = test system: MALME-3M melanoma
# BT-549 breast = test system: BT-549 breast
# KM12 colon = test system: KM12 colon
# DU-145 prostate = test system: DU-145 prostate
# HL-60(TB) leukemia = test system: HL-60(TB) leukemia
# MOLT-4 leukemia = test system: MOLT-4 leukemia
# MDA-MB-231 breast = test system: MDA-MB-231 breast
# SNB-19 CNS = test system: SNB-19 CNS
# RPMI-8226 leukemia = test system: RPMI-8226 leukemia
# NCI-H23 lung = test system: NCI-H23 lung
# OVCAR-5 ovarian = test system: OVCAR-5 ovarian
# EKVX NSCLC = test system: EKVX NSCLC
# SW-620 colon = test system: SW-620 colon
# NCI-H522 lung = test system: NCI-H522 lung
# SNB-75 CNS = test system: SNB-75 CNS
# SF-295 CNS = test system: SF-295 CNS
# NCI-H460 lung = test system: NCI-H460 lung
# CAKI-1 renal = test system: CAKI-1 renal
# A498 renal = test system: A498 renal
# 786-0 renal = test system: 786-0 renal
# HT29 colon = test system: HT29 colon
# RXF 393 renal = test system: RXF 393 renal
# HOP-62 NSCLC = test system: HOP-62 NSCLC
# NCI-H226 lung = test system: NCI-H226 lung
structure (smiles),measurement,setting,value
CC(=O)O[C@@H]1[C@@H](O)C2=C3[C@]4(C)[C@@H]1C(C)(C)C(=O)C[C@@H]4[C@]3(O)[C@H](OC(C)=O)[C@@]1(C[C@@H]1C)C2=O,TGI,LOX IMVI melanoma,30.5 µM
same,TGI,COLO 205 colon,34.2 µM
same,TGI,ACHN renal,43.4 µM
same,TGI,SF-268 CNS,81.7 µM
same,TGI,CCRF-CEM leukemia,34.1 µM
same,TGI,SK-MEL-2 melanoma,68.5 µM
same,TGI,TK-10 renal,29.7 µM
same,TGI,UACC-62 melanoma,33.2 µM
same,TGI,OVCAR-3 ovarian,36.5 µM
same,TGI,SK-MEL-5 melanoma,48.8 µM
same,TGI,HCT-15 colon,31.5 µM
same,TGI,SF-539 CNS,56.1 µM
same,TGI,HOP-92 NSCLC,36.6 µM
same,TGI,UACC-257 melanoma,37.2 µM
same,TGI,OVCAR-4 ovarian,43.9 µM
same,TGI,HCT-116 colon,30.8 µM
same,TGI,HS 578T breast,> 100 µM
same,TGI,A549 NSCLC,68.4 µM
same,TGI,SK-OV-3 ovarian,52.6 µM
same,TGI,NCI/ADR-RES ovarian,62.5 µM
same,TGI,T-47D breast,36 µM
same,TGI,HCC-2998 colon,32.7 µM
same,TGI,SK-MEL-28 melanoma,37.1 µM
same,TGI,MDA-MB-435,37.8 µM
same,TGI,PC-3 prostate,48.9 µM
same,TGI,U251 CNS,40.6 µM
same,TGI,IGROV1 ovarian,30.9 µM
same,TGI,M14 melanoma,91.9 µM
same,TGI,OVCAR-8 ovarian,34.2 µM
same,TGI,UO-31 renal,33.9 µM
same,TGI,K-562 leukemia,> 100 µM
same,TGI,SN12C renal,37.1 µM
same,TGI,MCF7 breast,47.4 µM
same,TGI,MALME-3M melanoma,29.3 µM
same,TGI,BT-549 breast,37 µM
same,TGI,KM12 colon,30.8 µM
same,TGI,DU-145 prostate,33.8 µM
same,TGI,HL-60(TB) leukemia,49.1 µM
same,TGI,MOLT-4 leukemia,72.4 µM
same,TGI,MDA-MB-231 breast,37.7 µM
same,TGI,SNB-19 CNS,61.5 µM
same,TGI,RPMI-8226 leukemia,98.4 µM
same,TGI,NCI-H23 lung,> 100 µM
same,TGI,OVCAR-5 ovarian,54.9 µM
same,TGI,EKVX NSCLC,40.7 µM
same,TGI,SW-620 colon,42.8 µM
same,TGI,NCI-H522 lung,19.2 µM
same,TGI,SNB-75 CNS,75.4 µM
same,TGI,SF-295 CNS,42.1 µM
same,TGI,NCI-H460 lung,40.1 µM
same,TGI,CAKI-1 renal,33.2 µM
same,TGI,A498 renal,45.8 µM
same,TGI,786-0 renal,32.4 µM
CN(C)c1ncc(-c2ccc(C(F)(F)F)cc2)c(NC2CCCCCC2)n1,GI50,COLO 205 colon,14.4 µM
same,TGI,COLO 205 colon,30.6 µM
same,GI50,ACHN renal,16 µM
same,TGI,ACHN renal,31.2 µM
same,GI50,SF-268 CNS,22.7 µM
same,TGI,SF-268 CNS,96.1 µM
same,GI50,CCRF-CEM leukemia,16.4 µM
same,TGI,CCRF-CEM leukemia,35.8 µM
same,GI50,TK-10 renal,40.6 µM
same,TGI,TK-10 renal,> 100 µM
same,GI50,UACC-62 melanoma,14.7 µM
same,TGI,UACC-62 melanoma,35.7 µM
same,GI50,OVCAR-3 ovarian,16.3 µM
same,TGI,OVCAR-3 ovarian,33.3 µM
same,GI50,SK-MEL-5 melanoma,14 µM
same,TGI,SK-MEL-5 melanoma,28.3 µM
same,GI50,HCT-15 colon,17.1 µM
same,TGI,HCT-15 colon,48.8 µM
same,GI50,SF-539 CNS,21.7 µM
same,TGI,SF-539 CNS,55.2 µM
same,GI50,HT29 colon,11.4 µM
same,TGI,HT29 colon,32.9 µM
same,GI50,UACC-257 melanoma,16.8 µM
same,TGI,UACC-257 melanoma,54 µM
same,GI50,OVCAR-4 ovarian,12.9 µM
same,TGI,OVCAR-4 ovarian,56.6 µM
same,GI50,HCT-116 colon,10.4 µM
same,TGI,HCT-116 colon,53.4 µM
same,GI50,HS 578T breast,23.1 µM
same,TGI,HS 578T breast,> 100 µM
same,GI50,A549 NSCLC,18.2 µM
same,TGI,A549 NSCLC,57.1 µM
same,GI50,SK-OV-3 ovarian,29 µM
same,TGI,SK-OV-3 ovarian,95.4 µM
same,GI50,RXF 393 renal,10.8 µM
same,TGI,RXF 393 renal,27.2 µM
same,GI50,NCI/ADR-RES ovarian,22.2 µM
same,TGI,NCI/ADR-RES ovarian,80.6 µM
same,GI50,T-47D breast,25 µM
same,TGI,T-47D breast,> 100 µM
same,GI50,HCC-2998 colon,13.8 µM
same,TGI,HCC-2998 colon,28.8 µM
same,GI50,HOP-62 NSCLC,24.5 µM
same,TGI,HOP-62 NSCLC,61 µM
same,GI50,NCI-H226 lung,12.6 µM
same,TGI,NCI-H226 lung,28.8 µM
same,GI50,SK-MEL-28 melanoma,19.6 µM
same,TGI,SK-MEL-28 melanoma,60.3 µM
same,GI50,MDA-MB-435,24.8 µM
same,TGI,MDA-MB-435,> 100 µM
same,GI50,PC-3 prostate,20.2 µM
same,TGI,PC-3 prostate,87.1 µM
same,GI50,U251 CNS,14.7 µM
same,TGI,U251 CNS,30 µM
same,GI50,IGROV1 ovarian,32.5 µM
same,TGI,IGROV1 ovarian,> 100 µM
same,GI50,M14 melanoma,24 µM
same,TGI,M14 melanoma,> 100 µM
same,GI50,OVCAR-8 ovarian,25.8 µM
same,TGI,OVCAR-8 ovarian,> 100 µM
same,GI50,UO-31 renal,12.6 µM
same,TGI,UO-31 renal,35.2 µM
same,GI50,K-562 leukemia,14.6 µM
same,TGI,K-562 leukemia,41.1 µM
same,GI50,SN12C renal,17.3 µM
same,TGI,SN12C renal,62.2 µM
same,GI50,MCF7 breast,11.4 µM
same,TGI,MCF7 breast,24.9 µM
same,GI50,MALME-3M melanoma,14.4 µM
same,TGI,MALME-3M melanoma,40.4 µM
same,GI50,BT-549 breast,20.4 µM
same,TGI,BT-549 breast,44.4 µM
same,GI50,KM12 colon,20.5 µM
same,TGI,KM12 colon,63.3 µM
same,GI50,DU-145 prostate,27.1 µM
same,TGI,DU-145 prostate,> 100 µM
same,GI50,HL-60(TB) leukemia,15 µM
same,TGI,HL-60(TB) leukemia,34 µM
same,GI50,MOLT-4 leukemia,14.8 µM
same,TGI,MOLT-4 leukemia,34.7 µM
same,GI50,MDA-MB-231 breast,13.3 µM
same,TGI,MDA-MB-231 breast,28.8 µM
same,GI50,SNB-19 CNS,15.6 µM
same,TGI,SNB-19 CNS,37.5 µM
same,GI50,RPMI-8226 leukemia,6.51 µM
same,TGI,RPMI-8226 leukemia,24.4 µM
same,GI50,NCI-H23 lung,17.3 µM
same,TGI,NCI-H23 lung,57.3 µM
same,GI50,OVCAR-5 ovarian,18.2 µM
same,TGI,OVCAR-5 ovarian,38.8 µM
same,GI50,SW-620 colon,15 µM
same,TGI,SW-620 colon,37.3 µM
same,GI50,NCI-H522 lung,11.2 µM
same,TGI,NCI-H522 lung,30.2 µM
same,GI50,SNB-75 CNS,20.6 µM
same,TGI,SNB-75 CNS,93.8 µM
same,GI50,SF-295 CNS,17.5 µM
same,TGI,SF-295 CNS,37.4 µM
same,GI50,NCI-H460 lung,16.2 µM
same,TGI,NCI-H460 lung,35.9 µM
same,GI50,CAKI-1 renal,23.1 µM
same,TGI,CAKI-1 renal,> 100 µM
same,GI50,A498 renal,12.4 µM
same,TGI,A498 renal,29.4 µM
same,GI50,786-0 renal,14.8 µM
same,TGI,786-0 renal,33.4 µM
CCCCc1ccc(Nc2nc(=S)c3[nH]cnc3[nH]2)cc1,TGI,LOX IMVI melanoma,31.7 µM
same,TGI,COLO 205 colon,31.2 µM
same,TGI,ACHN renal,59.2 µM
same,TGI,SF-268 CNS,> 100 µM
same,TGI,CCRF-CEM leukemia,47.9 µM
same,TGI,SK-MEL-2 melanoma,52.1 µM
same,TGI,TK-10 renal,46.5 µM
same,TGI,UACC-62 melanoma,35.1 µM
same,TGI,OVCAR-3 ovarian,43 µM
same,TGI,SK-MEL-5 melanoma,25.5 µM
same,TGI,HCT-15 colon,> 100 µM
same,TGI,SF-539 CNS,48 µM
same,TGI,HOP-92 NSCLC,> 100 µM
same,TGI,HT29 colon,22 µM
same,TGI,UACC-257 melanoma,55.2 µM
same,TGI,OVCAR-4 ovarian,76.4 µM
same,TGI,HCT-116 colon,> 100 µM
same,TGI,HS 578T breast,49.3 µM
same,TGI,A549 NSCLC,> 100 µM
same,TGI,NCI/ADR-RES ovarian,40.3 µM
same,TGI,T-47D breast,49.3 µM
same,TGI,HCC-2998 colon,66.4 µM
same,TGI,NCI-H226 lung,31.6 µM
same,TGI,SK-MEL-28 melanoma,> 100 µM
same,TGI,MDA-MB-435,48.1 µM
same,TGI,PC-3 prostate,> 100 µM
same,TGI,U251 CNS,> 100 µM
same,TGI,IGROV1 ovarian,40.4 µM
same,TGI,M14 melanoma,> 100 µM
same,TGI,UO-31 renal,> 100 µM
same,TGI,K-562 leukemia,> 100 µM
same,TGI,SN12C renal,59 µM
same,TGI,MALME-3M melanoma,37 µM
same,TGI,BT-549 breast,39 µM
same,TGI,KM12 colon,25.8 µM
same,TGI,DU-145 prostate,> 100 µM
same,TGI,HL-60(TB) leukemia,57.8 µM
same,TGI,MOLT-4 leukemia,22.2 µM
same,TGI,MDA-MB-231 breast,83.3 µM
same,TGI,SNB-19 CNS,56.8 µM
same,TGI,RPMI-8226 leukemia,90.4 µM
same,TGI,NCI-H23 lung,51.7 µM
same,TGI,OVCAR-5 ovarian,43.5 µM
same,TGI,SW-620 colon,60.9 µM
same,TGI,NCI-H522 lung,22.8 µM
same,TGI,SF-295 CNS,78.7 µM
same,TGI,NCI-H460 lung,> 100 µM
same,TGI,CAKI-1 renal,92.6 µM
same,TGI,A498 renal,31.7 µM
same,TGI,786-0 renal,> 100 µM
